“And” between values parts separate entries of the source, which are not always exact repeats. Equal values may be shown once. Where a name gives a salt, the structure may show the parent alone. Read-outs that look alike come from different tables or passages of the source.
Experiments:
[1] = amide bond, BOP, CH2Cl2, 40.0 °C
[2] = amide bond; 16-membered ring; TFA; BOP/DMAP/Et3N; CH2Cl2/DMF; 40.0 °C; 2 steps
Factor VIIa = target: T1, Factor VIIa (Homo sapiens, UniProt P08709); experiment: Factor VIIa assay; assay type: biochemical; details: measured in the Factor VIIa assay described above; several values in a cell are repeat determinations
T1 construct: purchased Haematologic Technologies (purified) or Novo Nordisk (recombinant)
T1 sequence (P08709 213-466 limits assumed): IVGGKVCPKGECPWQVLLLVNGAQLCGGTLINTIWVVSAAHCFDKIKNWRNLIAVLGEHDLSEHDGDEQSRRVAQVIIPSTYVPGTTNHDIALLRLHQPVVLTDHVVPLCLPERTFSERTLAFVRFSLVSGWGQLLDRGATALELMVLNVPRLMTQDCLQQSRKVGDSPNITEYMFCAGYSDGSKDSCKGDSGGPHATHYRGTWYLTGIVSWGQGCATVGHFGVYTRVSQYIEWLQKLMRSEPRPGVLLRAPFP
T1 sequence (P08709 61-212 limits assumed): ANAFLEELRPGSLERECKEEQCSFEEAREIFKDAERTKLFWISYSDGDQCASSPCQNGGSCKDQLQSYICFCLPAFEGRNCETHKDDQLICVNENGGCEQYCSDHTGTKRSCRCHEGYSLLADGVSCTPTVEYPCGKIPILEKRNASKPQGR
T1 sequence (P13726 33-251 partner limits assumed): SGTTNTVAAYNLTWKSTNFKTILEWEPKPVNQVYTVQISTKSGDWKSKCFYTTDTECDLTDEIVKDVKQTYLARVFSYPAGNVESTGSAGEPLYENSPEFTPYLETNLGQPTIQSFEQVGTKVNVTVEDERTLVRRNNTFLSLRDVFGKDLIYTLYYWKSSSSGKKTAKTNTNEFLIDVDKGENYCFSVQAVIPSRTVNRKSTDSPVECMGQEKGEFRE

[3] = test system: patients with acute coronary syndromes; details: cited from earlier work
[4] = test system: patients undergoing total knee replacement; details: cited from earlier work
[5] = test system: patients undergoing coronary angioplasty; details: cited from earlier work

Compound	Ki (Factor VIIa)	also measured
CC(C)S(=O)(=O)c1ccc2cc1CN(C)C(=O)[C@H](Nc1ccc3c(c1)C(=O)NC3)c1ccc(cc1)CCCC(=O)N2	–	ring closure, yield of all isomers ([1]; from CNCc1cc(NC(=O)CCCc2ccc(C(Nc3ccc4c(c3)C(=O)NC4)C(=O)O)cc2)ccc1S(=O)(=O)C(C)C, 8.05 mM, 16.0 h): 31.8%
CC(C)S(=O)(=O)c1ccc2cc1CN(C)C(=O)[C@H](Nc1ccc3c(c1)C(=O)NCC3)c1ccc(cc1)CCCC(=O)N2	–	ring closure, yield of all isomers ([1]; from CNCc1cc(NC(=O)CCCc2ccc(C(Nc3ccc4c(c3)C(=O)NCC4)C(=O)O)cc2)ccc1S(=O)(=O)C(C)C, 5.11 mM, 7.0 h): 19.9%
CCS(=O)(=O)c1ccc2cc1CNC(=O)[C@H](Nc1ccc3c(c1)C(=O)NC3)c1ccc(cc1)CCCC(=O)N2	–	ring closure, yield of all isomers ([1]; from CCS(=O)(=O)c1ccc(NC(=O)CCCc2ccc(C(Nc3ccc4c(c3)C(=O)NC4)C(=O)O)cc2)cc1CNC(=O)OC(C)(C)C, 6.6 mM, 6.0 h, 2 steps): 27.7%
CCS(=O)(=O)c1ccc2cc1CNC(=O)[C@H](Nc1ccc3c(c1)C(=O)NCC3)c1ccc(cc1)CCCC(=O)N2	–	ring closure, yield after HPLC [2]: 28.4%; ring closure, yield of all isomers ([1]; from CCS(=O)(=O)c1ccc(NC(=O)CCCc2ccc(C(Nc3ccc4c(c3)C(=O)NCC4)C(=O)O)cc2)cc1CNC(=O)OC(C)(C)C, 6.0 h, 2 steps): 28.4%
CC(=O)N1CC(=O)Nc2ccc(S(=O)(=O)C(C)C)c(c2)CNC(=O)C(Nc2ccc3cc[nH]c(=O)c3c2)c2cc(C)c(c(C)c2)C1 (stereo not shown) [Example 128, 14-Acetyl-17,20-dimethyl-2-(1-oxo-1,2-dihydro-isoquinolin-7-ylamino)-7-(propane-2-sulfonyl)-4,11,14-triaza-tricyclo[14.2.2.1^6,10]henicosa-1(19),6,8,10(21),16(20),17-hexaene-3,12-dione trifluoroacetate]	0.0266 µM	–
CCOC(=O)CCN1Cc2cccc(c2)NC(=O)OCCc2c(C)cc(cc2C)[C@@H](Nc2ccc3cc[nH]c(=O)c3c2)C1=O [Example 144, 3-[17,20-Dimethyl-3,12-dioxo-2-(1-oxo-1,2-dihydro-isoquinolin-7-ylamino)-13-oxa-4,11-diaza-tricyclo[14.2.2.1^6,10]henicosa-1(19),6,8,10(21),16(20),17-hexaen-4-yl]-propionic acid ethyl ester]	3.1 µM	–
Cc1cc2cc(C)c1CCOC(=O)Nc1cccc(c1)CN(CCC(=O)O)C(=O)C2Nc1ccc2cc[nH]c(=O)c2c1 (stereo not shown) [Example 145, 3-[17,20-Dimethyl-3,12-dioxo-2-(1-oxo-1,2-dihydro-isoquinolin-7-ylamino)-13-oxa-4,11-diaza-tricyclo[14.2.2.1^6,10]henicosa-1(19),6,8,10(21),16(20),17-hexaen-4-yl]-propionic acid]	1.3 µM	–
Cc1cc2ccc1[C@@H](C)COC(=O)Nc1cccc(c1)CN(CCNC(=O)OC(C)(C)C)C(=O)[C@@H]2Nc1ccc2cc[nH]c(=O)c2c1 [Example 148, {2-[(2R,15R)-15,17-Dimethyl-3,12-dioxo-2-(1-oxo-1,2-dihydro-isoquinolin-7-ylamino)-13-oxa-4,11-diaza-tricyclo[14.2.2.1^6,10]henicosa-1(19),6,8,10(21),16(20),17-hexaen-4-yl]-ethyl}-carbamic acid tert-butyl ester]	2.53 µM	–
Cc1cc2ccc1[C@@H](C)COC(=O)Nc1cccc(c1)CN(CCN)C(=O)[C@@H]2Nc1ccc2cc[nH]c(=O)c2c1 [Example 149, (2R,15R)-4-(2-Amino-ethyl)-15,17-dimethyl-2-(1-oxo-1,2-dihydro-isoquinolin-7-ylamino)-13-oxa-4,11-diaza-tricyclo[14.2.2.1^6,10]henicosa-1(19),6,8,10(21),16(20),17-hexaene-3,12-dione]	1.21 µM	–
Cc1cc2ccc1[C@@H](C)COC(=O)Nc1cccc(c1)CN(CCO)C(=O)[C@@H]2Nc1ccc2cc[nH]c(=O)c2c1 [Example 151, (2R,15R)-4-(2-Hydroxy-ethyl)-15,17-dimethyl-2-(1-oxo-1,2-dihydro-isoquinolin-7-ylamino)-13-oxa-4,11-diaza-tricyclo[14.2.2.1^6,10]henicosa-1(19),6,8,10(21),16(20),17-hexaene-3,12-dione]	1.12 µM	–
COCCN1Cc2cccc(c2)NC(=O)OC[C@H](C)c2ccc(cc2C)[C@@H](Nc2ccc3cc[nH]c(=O)c3c2)C1=O [Example 152, (2R,15R)-4-(2-Methoxy-ethyl)-15,17-dimethyl-2-(1-oxo-1,2-dihydro-isoquinolin-7-ylamino)-13-oxa-4,11-diaza-tricyclo[14.2.2.1^6,10]henicosa-1(19),6,8,10(21),16(20),17-hexaene-3,12-dione]	1.06 µM	–
COC(=O)NCCN1Cc2cccc(c2)NC(=O)OC[C@H](C)c2ccc(cc2C)[C@@H](Nc2ccc3cc[nH]c(=O)c3c2)C1=O [Example 153, {2-[(2R,15R)-15,17-Dimethyl-3,12-dioxo-2-(1-oxo-1,2-dihydro-isoquinolin-7-ylamino)-13-oxa-4,11-diaza-tricyclo[14.2.2.1^6,10]henicosa-1(19),6,8,10(21),16(20),17-hexaen-4-yl]-ethyl}-carbamic acid methyl ester]	1.46 µM	–
CCOC(=O)CCN1Cc2cccc(c2)NC(=O)OC[C@H](C)c2ccc(cc2C)[C@@H](Nc2ccc3cc[nH]c(=O)c3c2)C1=O [Example 154, 3-[(2R,15R)-15,17-Dimethyl-3,12-dioxo-2-(1-oxo-1,2-dihydro-isoquinolin-7-ylamino)-13-oxa-4,11-diaza-tricyclo[14.2.2.1^6,10]henicosa-1(19),6,8,10(21),16(20),17-hexaen-4-yl]-propionic acid ethyl ester]	1 µM	–
Cc1cc2ccc1[C@@H](C)COC(=O)Nc1cccc(c1)[C@@H](C)NC(=O)[C@@H]2Nc1ccc2cc[nH]c(=O)c2c1 [Example 158]	0.0271 µM and 0.0975 µM	–
Cc1cc2ccc1[C@@H](C)COC(=O)Nc1ccc(N3C(=O)C4CCC3CC4)c(c1)CN(C)C(=O)[C@@H]2Nc1ccc2cc[nH]c(=O)c2c1 [Example 168, (2R,15R)-4,15,17-Trimethyl-7-(3-oxo-2-aza-bicyclo[2.2.2]oct-2-yl)-2-(1-oxo-1,2-dihydro-isoquinolin-7-ylamino)-13-oxa-4,11-diaza-tricyclo[14.2.2.1^6,10]henicosa-1(19),6,8,10(21),16(20),17-hexaene-3,12-dione]	0.00088 µM	–
recombinant nematode anticoagulant protein c2 [rNAPc2]	–	magnitude and duration of ischemic events [3]: reduces magnitude and duration of ischemic events; deep vein thrombosis [4]: prevents deep vein thrombosis; systemic thrombin generation [5]: reduces systemic thrombin generation

Source: patent publication US8420830B2, “Macrocyclic factor VIIa inhibitors useful as anticoagulants” (Bristol-Myers Squibb Company, priority 2006, dated 2013)
